According to PubChem BioAssay (NCI):
Several values for one entry are separate records, joined by “and”; a condition that tells them apart may be missing. Equal entries are not always repeated.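 Values below derive from 48-hour exposures of cells grown in 96-well plates, with endpoints linearly interpolated between the two concentrations bracketing the appropriate inhibition level. At the GI50, growth is halved. The concentration for full growth arrest is given as TGI.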

What was measured:
Assay in all cases: NCI-60 cell line screen, 48 h
[1] = tested on: MDA-MB-435
[2] = tested on: HOP-62 NSCLC
[3] = tested on: SK-OV-3 ovarian
[4] = tested on: HT29 colon
[5] = tested on: UO-31 renal
[6] = tested on: SF-539 CNS
[7] = tested on: M19-MEL melanoma
[8] = tested on: HOP-18 NSCLC
[9] = tested on: LXFL 529 NSCLC
[10] = tested on: SNB-78 CNS
[11] = tested on: DLD-1 colon
[12] = tested on: KM20L2 colon
[13] = tested on: DMS 114 small cell lung
[14] = tested on: DMS 273 small cell lung
[15] = tested on: XF 498 CNS
[16] = tested on: RXF-631 renal

Row | Structure (SMILES) | TGI [1] [µM] | TGI [2] [µM] | TGI [3] [µM] | TGI [4] [µM] | TGI [5] [µM] | TGI [6] [µM] | GI50 [3] | GI50 [4] | GI50 [5] [µM] | TGI [7] [µM] | TGI [8] [µM] | TGI [9] [µM] | TGI [10] [µM] | TGI [11] [µM] | TGI [12] [µM] | TGI [13] [µM] | TGI [14] [µM] | TGI [15] [µM] | TGI [16] [µM]
1 | Oc1ccc2cc(Br)ccc2c1-c1c(O)ccc2ccc(Br)cc12 | 31.1 | 28.5 | 24.6 | 10.1 | 28.8 | 34.8 | – | – | – | – | – | – | – | – | – | – | – | – | –
2 | O=[N+]([O-])c1cccc2nc3ccccc3c(NCCCNc3c4ccccc4nc4cccc([N+](=O)[O-])c34)c12 | 0.141 | 0.0844 | 1.59 | < 0.01 | 0.143 | 0.149 | – | – | – | – | – | – | – | – | – | – | – | – | –
3 | O=C(/C=C/c1ccccc1)Oc1ccc(C(=O)/C=C/c2ccc(Cl)cc2)cc1 | > 100 | > 100 | > 100 | > 100 | > 100 | > 100 | – | – | – | – | – | – | – | – | – | – | – | – | –
4 | O=[N+]([O-])c1ccc(OC2CC3C4C=CC3C2C4)c([N+](=O)[O-])c1 (centres undefined) | > 100 | > 100 | > 100 | > 100 | > 100 | > 100 | 68.5 µM and > 31.6 µM | > 100 µM and 30 µM | > 100 | – | – | – | – | – | – | – | – | – | –
5 | [N-]=[N+]=NI1OC(=O)c2ccccc21 | > 100 | > 100 | > 100 | > 100 | > 100 | > 100 | – | – | – | – | – | – | – | – | – | – | – | – | –
6 | Nc1c([N+](=O)[O-])nc(Cl)c2nncn12 | – | > 100 | > 100 | > 100 | > 100 | > 100 | – | – | – | > 100 | > 100 | > 100 | > 100 | > 100 | > 100 | > 57.4 | 31.3 | > 100 | > 100
7 | CCOC(=O)N1N=C(/C(C)=N/OC)C(C)S1=O (centres undefined) | > 100 | > 100 | > 100 | > 100 | > 100 | > 100 | – | – | – | – | – | – | – | – | – | – | – | – | –
8 | CC1=NN(c2nc(N)nc(/C(C#N)=C\c3csc([N+](=O)[O-])c3)n2)C(C)(C)C1 | > 100 | 64.6 | > 100 | > 100 | > 100 | > 100 | – | – | – | – | – | – | – | – | – | – | – | – | –
9 | CC1=C(O)C2=C(C(=O)C1=O)[C@@H](C)CC[C@@H]2[C@@H](C)C/C=C/C(C)(C)O | > 100 | > 100 | > 100 | > 100 | > 100 | > 100 | – | – | – | – | – | – | – | – | – | – | – | – | –
10 | COc1ccc(/C=N/n2c(C)n[nH]c2=O)c(OC)c1 | > 100 | > 100 | > 100 | > 100 | > 100 | > 100 | – | – | – | – | – | – | – | – | – | – | – | – | –
11 | CCOC(=O)C(=CNc1ccc(NC2=NCC(C)S2)cc1)C(=O)OCC (centres undefined) | 60.2 | > 100 | > 100 | > 84.2 | 73 | > 100 | – | – | – | – | – | – | – | – | – | – | – | – | –
12 | COC(=O)c1c(C)n([O-])c2cc(Cl)c(Cl)cc2[n+]1=O | 62.8 | > 100 | 40 | 51.6 | 46.7 | 54.4 | – | – | – | – | – | – | – | – | – | – | – | – | –
13 | Nc1ccc2c(c1)nc1n2C(c2c(F)cccc2F)SC1 (centres undefined) | > 100 | > 100 | > 100 | > 100 | > 100 | > 100 | – | – | – | – | – | – | – | – | – | – | – | – | –
14 | CCOC(=O)C1(F)S(=O)(=O)OCCOS1(=O)=O | > 100 | > 100 | > 100 | > 100 | > 100 | > 100 | – | – | – | – | – | – | – | – | – | – | – | – | –
15 | Oc1[nH]c2ccccc2c1N=NC(=S)Nc1ccccc1Cl | 57.5 | 37.9 | 35.5 | 21.9 | 81.6 | 7.86 | – | – | – | – | – | – | – | – | – | – | – | – | –
16 | CCOC(=O)c1sc2nc(SC)nc3c2c1NCN3c1ccc2c(c1)OCO2 | 52.7 | 18.7 | 24.2 | > 100 | 69.8 | 51.1 | – | – | – | – | – | – | – | – | – | – | – | – | –
17 | COc1ccc(OC)c(N(CN2C(=O)CCC2C(=O)O)C(C)=O)c1 (centres undefined) | > 100 | > 100 | > 100 | > 100 | > 100 | > 100 | – | – | – | – | – | – | – | – | – | – | – | – | –
18 | COC(=O)[C@]1(NC(=O)c2ccccc2)C[C@H]1C=O | > 100 | > 100 | > 100 | > 100 | > 100 | > 100 | – | – | – | – | – | – | – | – | – | – | – | – | –
19 | C[C@]12C[C@@H](OC(=O)[C@]1(C)O)[C@@H]([C@]1(O)CC[C@H]3[C@@H]4C[C@H]5O[C@]56C[C@H]5O[C@H]5C(=O)[C@]6(C)[C@H]4CC[C@@]31C)C2 | > 50 | > 50 | > 50 | > 50 | > 50 | > 50 | – | – | – | – | – | – | – | – | – | – | – | – | –
20 | O=C(CCC1C(=O)NC(=S)NC1=O)c1ccc2ccccc2c1 | – | > 100 | > 100 | > 100 | > 100 | > 100 | – | – | – | > 100 | > 100 | > 100 | > 100 | > 100 | > 100 | > 100 | > 100 | – | –
